These results are taken from PMC7647111, “Antileishmanial compounds from Connarus suberosus: Metabolomics, isolation and mechanism of action” (PLoS ONE, 2020).

The subject of series [1] is L. amazonensis promastigotes. Description: Antiproliferation assay: L. amazonensis promastigotes (24 h), resazurin. In kind it is cell-based, Leishmania amazonensis (IFLA/BR/1967/PH8). The following applies: Leishmania amazonensis, 24 h of exposure, read-out: IC50. How it is done: (§1) Leishmania amazonensis promastigotes (IFLA/BR/1967/PH8) for the 24 h exposure test were cultivated in RPMI 1640, supplemented with 20% v/v heat inactivated fetal bovine serum (FBS) and incubated at 26°C until near the end of the log growth phase. Leishmania amazonensis (IFLA/BR/1967/PH8) and L. infantum (MCAN/BR/2008/1112) promastigotes used in the 72 h exposure test were cultivated in Warren’s medium (containing brain heart infusion- BHI plus hemin and folic acid), supplemented with 10% FBS, 0.1% of the antibiotics: 100 UI/mL penicillin G and 0.1 mg/mL streptomycin. Leishmania amazonensis (IFLA/BR/1967/PH8) transfected with the red fluorescent protein (RFP) gene was cultured in M199 medium (containing 0.1 mmol/L adenine, 40 mmol/L hepes, 0.0005% hemin and 0.0002% biotin), supplemented with 10% FBS, and 0.1% of the antibiotic. Parasites were maintained at 25°C in a BOD incubator.
Extracts and fractions were tested against L. amazonensis (IFLA/BR/1967/PH8) promastigote cells in a 96-well plate at a concentration of 10^6 cells/well. Each sample was solubilized in DMSO (<1%) since it was not soluble directly in the medium. Extracts were tested at 100 μg/mL and 50 μg/mL. […] Plates were read at 570 nm and 595 nm in a microplate reader (BiochromAsys UVM 340) after cell lysis with sodium dodecyl sulfate (SDS). Viability was calculated based on the equations described by Kulshrestha.

A further series is described as follows: Cytotoxicity assay (MTT). The following applies: female, BALB/c, mouse, murine peritoneal macrophages; 72 h exposure. In kind it is cell-based, BALB/c mice. The protocol:
Female BALB/c mice pre-inoculated with 3% thioglycollate medium were used to obtain macrophages from the peritoneal cavity. Peritoneal exudate was collected 72 h post-inoculation using cold Hank´s Balanced Salt Solution and the assay performed as previously reported. Briefly, peritoneal macrophages in RPMI 1640 medium were transferred to a 96-well plate (2x10^5 cells/well) and incubated at 37°C in 5% CO2 for 24 h to allow adhesion. Samples were serially diluted (100 μg/mL to 0.78 μg/mL), added to the plate with the cells and incubated under the same conditions for 72 h. MTT (10 μL/well) was subsequently added and the plates re-incubated for a further 2 h. To halt the reaction, 100 μL of acidified isopropanol was added to each well. The plate was then read at 570 nm in a microplate reader (Multiskan MS, LabSystems Oy, Helsinki, Finland).

The test system of the next series is L. infantum amastigotes. Description: L. infantum amastigotes assay (Giemsa, infection index). In kind it is cell-based, Leishmania infantum. How it is done:
Peritoneal macrophages (6 x 10^5 cells) were plated on round glass coverslips within 24-well plates in RPMI 1640 medium supplemented with FBS and 20 mM L-glutamine, pH 7.2, and incubated for 24 h at 37°C in 5% CO2. Stationary-phase promastigotes (6 x 10^6 cells, at a ratio of 10 parasites per macrophage) were then added to the wells, and cultures incubated for 24 h at 37°C in 5% CO2. Non-internalized parasites were removed by extensive PBS solution washing and infected macrophages subsequently treated with nontoxic concentrations of: compound 3 (6.25 μg/mL to 0.18 μg/mL) or miltefosine (10.0 μg/mL to 0.6 μg/mL, positive control) for 72 h at 37°C in 5% CO2. After compound exposure, cells were fixed with absolute ethanol and stained with Giemsa. A total of 200 macrophages were counted under a light microscope. The infection index was determined by the […] percentage of infected macrophages multiplied by the mean number of amastigotes per macrophage out of 200 macrophages.

Series [2] deals with L. amazonensis promastigotes. Description: Reactive oxygen species (ROS) detection (H2DCFDA). In kind it is cell-based, Leishmania amazonensis. To be noted: 24 h; 2 at 33.8 μM, 3 at 11.4 μM. How it is done: Fluorescence intensity was detected using a fluorimetric microplate reader (FLx800, BioTek Instruments, Inc., Winooski, VT, USA), at 485/528 nm excitation/emission. Promastigotes incubated with miltefosine (44.2 μM) were used as a positive control.

The subject of series [3] is L. amazonensis amastigotes. The experiment in a line: L. amazonensis amastigotes assay (RFP parasites in peritoneal macrophages). In kind it is cell-based, Leishmania amazonensis (IFLA/BR/1967/PH8). How it is done: Peritoneal macrophages obtained from BALB/c mice were transferred to a 24-well plate (6x10^5 cells/well) in RPMI 1640 medium supplemented with 10% inactivated FBS and 20 mM L-glutamine, pH 7.2. The plate was incubated at 37°C in 5% CO2 for 24 h. After this period, macrophages were infected with L. amazonensis (IFLA/BR/1967/PH8) transfected with RFP in the stationary growth phase using a ratio 1:10 (macrophages/parasites) at 33°C for 4 h. The non-phagocytosed parasites were subsequently removed by extensive PBS wash, and samples added at non-toxic concentrations, in accordance with the cytotoxicity tests (100 μg/mL to 1.56 μg/mL) to determine the IC50 for the intracellular parasite. After 72 h, the supernatant was removed from the wells and 200 μL of deionized water added to each well to lyse the cell membrane. After lysis, the resulting supernatants were transferred to a black 96-well plate. The plate was read in a fluorescence spectrophotometer (FLx800, BioTek Instruments, Inc., Winooski, VT, USA) with 540/600 nm of excitation/emission. Wells containing macrophages infected with L. amazonensis (RFP) […] only were used as negative controls.

In series [4] the test system is L. infantum promastigotes. Description: Antiproliferation assay: L. infantum promastigotes (72 h), MTT. In kind it is cell-based, Leishmania infantum (MCAN/BR/2008/1112). The following applies: Leishmania infantum, 72 h, 72 h exposure. The protocol: as §1
Extracts and isolated compounds were tested against L. amazonensis promastigotes (IFLA/BR/1967/PH8 strain - 2x10^5 cells/well) and L. infantum promastigotes (MCAN/BR/2008/1112 strain - 3x10^5 cells/well). The samples were solubilized in DMSO (<1%), serially diluted (100 μg/mL to 1.56 μg/mL) and tested in a 96-well plate to obtain a dose-response curve. Miltefosine and DMSO were used as positive and negative controls, respectively. After 72 h, 10 μL of 3-(4,5-dimethylthiazol-2-yl)-2,5-diphenyl tetrazolium bromide (5 mg/mL—MTT, Sigma-Aldrich) solution was added to each well and the plate returned to the incubator for an additional 4 h. To halt the reaction, 100 μL acidified isopropanol was added to each well. Plates were read at 570 nm in a microplate reader (Multiskan MS, LabSystems Oy, Helsinki, Finland).

Each structure is given as a SMILES string. Several values for one entry are separate records, joined by “and”; a condition that tells them apart may be missing. Identical values can stand only once.

For `C=C[C@@H](c1cc(CC=C(C)C)ccc1O)c1cc(CC=C(C)C)c(OC)cc1O` [Compound 3, connarin], the IC50 in series [1] was 20.5 µM; in the series with L. infantum amastigotes (Leishmania infantum, intracellular, 72 h), 7.7 µM; in series [3] (Leishmania amazonensis, Peritoneal macrophage, intracellular, 72 h), 1.13 µg/mL and 2.9 µM; in series [4] it was 5.2 µg/mL and 13.3 µM. Also, the CC50 at 72 h in “Cytotoxicity assay (MTT)” is 7.2 µg/mL and 18.3 µM. The “SI (Selectivity Index)” value with L. infantum amastigotes (L. infantum amastigotes) is 2.4; in series [3] (CC50 macrophages / IC50 L. amazonensis amastigotes) it was 6.3. Moreover, the ROS level entry in series [2] was “no alteration in the ROS level”.
